According to ChEMBL document CHEMBL1201862, “PubChem BioAssay data set” (2004):
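Interpolation was linear, between the two tested concentrations surrounding the appropriate level; five concentrations were tested over 48 hours in 96-well plates. Abbreviation: GI50, concentration required for 50% inhibition of growth.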 Active and inactive are the calls of the source. Cut-off read from the data, not from the text of the source: active = GI50 up to about 1.1 µM and inactive = higher.

What was measured:
Test in all cases: NCI anticancer screen, dose series, 48 h
[1] = tested on: RXF 631
[2] = tested on: DMS-114
[3] = tested on: HOP-18
[4] = tested on: XF498
[5] = tested on: Hs-578T
[6] = tested on: MDA-MB-435
[7] = tested on: PC-3
[8] = tested on: BT-549

Row | Compound | GI50 [1] | GI50 [2] | GI50 [3] | GI50 [4] | GI50 [5] | GI50 [6] | GI50 [7] | GI50 [8]
1 | O=C(NO)c1coc2ccccc2c1=O | > 100 µM (inactive) | 82 µM (inactive) |  |  |  |  |  | 
2 | COCCOCOc1ccc(OCc2ccccc2)cc1 |  | 40.9 µM (inactive) | > 100 µM (inactive) | > 100 µM (inactive) |  |  |  | 
3 | Cc1ccccc1-c1nc2c(C(=O)NCCN(C)C)cccc2[nH]1 |  | 47.5 µM (inactive) | 8.02 µM (inactive) | 39.7 µM (inactive) |  |  |  | 
4 | NC(=O)Oc1ccccc1 [CARBAMIC ACID PHENYL ESTER] |  |  |  |  | > 100 µM (inactive) | > 100 µM (inactive) | > 100 µM (inactive) | 
5 | CSc1nc(N)c2c(-c3ccccc3)c3c(nc2n1)CCCC3 |  |  |  |  | 21.5 µM (inactive) | > 100 µM (inactive) | > 100 µM (inactive) | > 100 µM (inactive)
6 | Cc1cc(NS(=O)(=O)c2ccc(NC(=O)c3cccc4c(Nc5ccc(S(N)(=O)=O)cc5)c5ccccc5nc34)cc2)no1 | > 100 µM (inactive) | > 100 µM (inactive) |  | 59.7 µM (inactive) |  |  |  | 
7 | CN(C)c1nc(N(C)C)nc(N(C)CN(C)c2ccccc2)n1 |  | 63.5 µM (inactive) | > 100 µM (inactive) | > 100 µM (inactive) |  |  |  | 
8 | O=C1OC(c2ccc(O)c(F)c2)(c2ccc(O)c(F)c2)c2cccc3cccc1c23 |  |  |  |  | 2.03 µM (inactive) | > 25 µM (inactive) | 3.09 µM (inactive) | 
9 | CC(=C/c1ccccc1)/C=C1/NC(=S)N(/C=C2\C(=O)Oc3ccccc3C2=O)C1=O |  |  |  |  |  | 45.1 µM (inactive) | 96.6 µM (inactive) | 
10 | COc1cc2c(cc1Oc1ccc(OC)c3c1CC1c4c(cc(OC)c(OC)c4-3)CCN1C)CC1c3c(cc(OC)c(OC)c3-2)CCN1C (stereo not drawn) |  |  | 14 µM (inactive) | 1.98 µM (inactive) |  |  |  | 
